Measured values: patent US3996359A, “Novel stereoisomeric component A of stereoisomeric mixtures of 2'-unsymmetrical 16,17-methylenedioxy steroid 21-acylates, compositions thereof, and method of treating therewith” (AB Bofors, priority 1972, dated 1976)

Test system: rats subjected to adrenalectomy (granuloma around implanted cotton wads)
Experiment: granulom test (cotton-pellet test) on rats subjected to adrenalectomy: granuloma growth, thymus weight, body weight increase
Format: in vivo, rat (Sprague-Dawley)
Settings: for Dose required to obtain 50% inhibition of Granuloma growth: Table 3, adrenalectomized young male Sprague-Dawley rats, topical in implanted cotton wads, day 8; for Dose required to obtain 25% inhibition of Body weight Increase / Dose required to obtain 50% inhibition of Thymus weight: 11520 min
From the text: In the following this active stereoisomeric component will always be designated B. As regards the steroids referred to in connection with the present invention the stereoisomeric mixture as well as the individual stereoisomeric components A and B have been investigated with regard to antiinflammatory activity in granulom test on rats subjected to adrenalectomy. The experimental procedure used corresponds largely to that described by G. Engelhardt: Arzneimittel-Forschung, 13, p. 588, 1963. According to this procedure the test substances are applied topically in the implanted cottom wads. It is thereby possible to study the local antiinflammatory effect in granulomas and also systemic effects in the form of retrogression of thymus and inhibition of bodyweight growth.
Young male rats of the Sprague-Dawley strain weighing about 110-130 g were subjected to adrenalectomy under ether narcosis. Two sterilized cottom wads of each about 6 mg were implanted simultaneously subcutaneously on the lateral side of the spinal. After awakening the animals were stored 5 per cage and were supplied with normal food and 1% sodium chloride solution as drinking water. On the eighth test day the animals were sacrificed by ether narcosis. The granuloma formed around the cotton wads were carefully recovered and thymus and body weights were measured. The two granuloma from each animal were dried over night at 80° C and weighed. After subtraction of the initial weight of the cotton wads the weight increase was used as a measure of the granulom growth.
The test substances were used dissolved in ethyl acetate. Under aseptic conditions 0.05 ml of said solutions were injected into each of the cotton wads, whereafter the solvent was allowed to evaporate in the desiccator. Normally 3 concentrations of each test substance with the standard doses 3.3, 30 and 270 γ/animal were investigated. Each test group normally comprised 10 rats. The cotton wads of the control group were injected with only ethyl acetate, but were in other respects treated in the same way. When considering the effects of the test substances the average values of granulom growth, thymus weight and body weight increase day 0-8 were measured in each group in absolute figures and in % of the corresponding figure of the control group. Dose-response curves were drafted and used for estimating the doses giving 50 % reduction of granulom growth and of thymus weight and 25 % decrease of body weight increase.
The following Table 4 discloses the results of the cotton-pellet test hereinbefore described, giving in addition figures for the therapeutic ratios, that is, the ratios of the ED50 for thymus weight inhibition divided by the ED50 for granuloma formation inhibition, and the ED25 for body weight increase inhibition over the ED50 for granuloma formation inhibition. As will be recognized, the higher the number for the therapeutic ratio, the more favorable the therapeutic ratio. […] As will be noted for the table, the therapeutic ratio for thymus over granuloma for the Component A esters is 4.2, 7.1, 4.5, 2.6, 2.2, 1.7, 2.5 and 1.7 times as good as it is for the corresponding Component B ester isomer, whereas the therapeutic ratio for the Component A ester isomer as far as body weight is granuloma 2.7, 3.3, 9.8, 6.4, 2.3, 2.8, 3.3 and 2.8 times as favorable as for the corresponding Component B ester isomer.

In the case of `CCC1O[C@@H]2C[C@H]3[C@@H]4CCC5=CC(=O)C=C[C@]5(C)[C@@]4(F)[C@@H](O)C[C@]3(C)[C@]2(C(=O)CO)O1` (single isomer, unassigned) [2 B], the “Dose required to obtain 50% inhibition of Granuloma growth” value is reported as 10 γ/animal, the “Dose required to obtain 25% inhibition of Body weight Increase” value (rat, in vivo) is reported as 100 γ/animal and the “Dose required to obtain 50% inhibition of Thymus weight” value (rat, in vivo) is reported as 60 γ/animal.

With `CCCC1O[C@@H]2C[C@H]3[C@@H]4C[C@H](F)C5=CC(=O)C=C[C@]5(C)[C@@]4(F)[C@@H](O)C[C@]3(C)[C@]2(C(=O)COC(=O)c2cc3ccccc3o2)O1` (single isomer, unassigned) [25 A] the “Dose required to obtain 50% inhibition of Granuloma growth” value was < 3 γ/animal, the ED25 body weight increase inhibition (rat, in vivo) was 20 µg/animal and the ED50 thymus weight inhibition (rat, in vivo) was 15 µg/animal. The “Therapeutic ratio body weight/granuloma” value (rat, in vivo) was > 6.7, the Therapeutic ratio thymus/granuloma (rat, in vivo) was > 5.0 and the “Dose required to obtain 25% inhibition of Body weight Increase” value (rat, in vivo) was 20 γ/animal. For the same molecule, the “Dose required to obtain 50% inhibition of Thymus weight” value (rat, in vivo) was 15 γ/animal.

With `CCCCCC1O[C@@H]2C[C@H]3[C@@H]4CCC5=CC(=O)C=C[C@]5(C)[C@H]4[C@@H](O)C[C@]3(C)[C@]2(C(=O)CO)O1` (stereo partly drawn) [13 A+B] the “Dose required to obtain 50% inhibition of Granuloma growth” value was 10 γ/animal, the “Dose required to obtain 25% inhibition of Body weight Increase” value (rat, in vivo) was 90 γ/animal and the “Dose required to obtain 50% inhibition of Thymus weight” value (rat, in vivo) was 175 γ/animal.

In the case of `CC1(C)O[C@@H]2C[C@H]3[C@@H]4C[C@H](F)C5=CC(=O)C=C[C@]5(C)[C@@]4(F)[C@@H](O)C[C@]3(C)[C@]2(C(=O)CO)O1` [Fluocinolone acetonide, reference compound], the “Dose required to obtain 50% inhibition of Granuloma growth” value is reported as ~50 γ/animal, the “decrease of body weight growth at the dose giving 50% inhibition of granulom growth” value (rat, in vivo) is reported as “heavy decrease” and the “decrease of thymus weight at the dose giving 50% inhibition of granulom growth” value (rat, in vivo) is reported as “heavy decrease”. For the same molecule, the “Dose required to obtain 25% inhibition of Body weight Increase” value (rat, in vivo) was 20 γ/animal and the “Dose required to obtain 50% inhibition of Thymus weight” value (rat, in vivo) was 14 γ/animal.

In the case of `CCCC1O[C@@H]2C[C@H]3[C@@H]4CCC5=CC(=O)C=C[C@]5(C)[C@@]4(F)[C@@H](O)C[C@]3(C)[C@]2(C(=O)CO)O1` (single isomer, unassigned) [3 A], the “Dose required to obtain 50% inhibition of Granuloma growth” value is reported as 25 γ/animal, the “Dose required to obtain 25% inhibition of Body weight Increase” value (rat, in vivo) is reported as > 30 γ/animal and the “Dose required to obtain 50% inhibition of Thymus weight” value (rat, in vivo) is reported as > 30 γ/animal.

`CCCC1O[C@@H]2C[C@H]3[C@@H]4CCC5=CC(=O)C=C[C@]5(C)[C@H]4[C@@H](O)C[C@]3(C)[C@]2(C(=O)CO)O1` (stereo partly drawn) [12 A+B] was tested, and the “Dose required to obtain 50% inhibition of Granuloma growth” value was 100 γ/animal, the “Dose required to obtain 25% inhibition of Body weight Increase” value (rat, in vivo) was 80 γ/animal and the “Dose required to obtain 50% inhibition of Thymus weight” value (rat, in vivo) was 80 γ/animal.

In the case of `CC1O[C@@H]2C[C@H]3[C@@H]4CCC5=CC(=O)C=C[C@]5(C)[C@@]4(F)[C@@H](O)C[C@]3(C)[C@]2(C(=O)COC(=O)c2cc3ccccc3o2)O1` (stereo partly drawn) [16 B], the “Dose required to obtain 50% inhibition of Granuloma growth” value is reported as 3 γ/animal, the “Therapeutic ratio body weight/granuloma” value (Table 4, ED25 body weight increase inhibition over ED50 granuloma formation inhibition) is reported as 3.3 and the Therapeutic ratio thymus/granuloma (Table 4, ED50 thymus weight inhibition divided by ED50 granuloma formation inhibition) is reported as 3.3. For the same molecule, the ED25 body weight increase inhibition (rat, in vivo) was 10 µg/animal, the ED50 thymus weight inhibition (rat, in vivo) was 10 µg/animal and the “Dose required to obtain 25% inhibition of Body weight Increase” value (rat, in vivo) was 10 γ/animal. The “Dose required to obtain 50% inhibition of Thymus weight” value (rat, in vivo) was 10 γ/animal.

`CCCC1O[C@@H]2C[C@H]3[C@@H]4CCC5=CC(=O)C=C[C@]5(C)[C@H]4[C@@H](O)C[C@]3(C)[C@]2(C(=O)COC(C)=O)O1` (single isomer, unassigned) [27 A] was tested, and the “Dose required to obtain 50% inhibition of Granuloma growth” value was < 3 γ/animal, the ED25 body weight increase inhibition (rat, in vivo) was 100 µg/animal and the ED50 thymus weight inhibition (rat, in vivo) was 100 µg/animal. The “Therapeutic ratio body weight/granuloma” value (rat, in vivo) was > 33.3, the Therapeutic ratio thymus/granuloma (rat, in vivo) was > 33.3 and the “Dose required to obtain 25% inhibition of Body weight Increase” value (rat, in vivo) was 100 γ/animal. For the same molecule, the “Dose required to obtain 50% inhibition of Thymus weight” value (rat, in vivo) was 100 γ/animal.

`CCCCCC1O[C@@H]2C[C@H]3[C@@H]4CCC5=CC(=O)C=C[C@]5(C)[C@H]4[C@@H](O)C[C@]3(C)[C@]2(C(=O)CO)O1` (single isomer, unassigned) [13 B] was tested, and the “Dose required to obtain 50% inhibition of Granuloma growth” value was 5 γ/animal, the “Dose required to obtain 25% inhibition of Body weight Increase” value (rat, in vivo) was > 270 γ/animal and the “Dose required to obtain 50% inhibition of Thymus weight” value (rat, in vivo) was 210 γ/animal.

In the case of `CCCCC(=O)OCC(=O)[C@@]12OC(C)O[C@@H]1C[C@H]1[C@@H]3CCC4=CC(=O)C=C[C@]4(C)[C@@]3(F)[C@@H](O)C[C@@]12C` (single isomer, unassigned) [18 A], the “Dose required to obtain 50% inhibition of Granuloma growth” value is reported as < 3 γ/animal, the ED25 body weight increase inhibition (rat, in vivo) is reported as 33 µg/animal and the ED50 thymus weight inhibition (rat, in vivo) is reported as 70 µg/animal. The “Therapeutic ratio body weight/granuloma” value (rat, in vivo) was > 11.0, the Therapeutic ratio thymus/granuloma (rat, in vivo) was > 23.3 and the “Dose required to obtain 25% inhibition of Body weight Increase” value (rat, in vivo) was 33 γ/animal. For the same molecule, the “Dose required to obtain 50% inhibition of Thymus weight” value (rat, in vivo) was 70 γ/animal.

`CC1O[C@@H]2C[C@H]3[C@@H]4CCC5=CC(=O)C=C[C@]5(C)[C@@]4(F)[C@@H](O)C[C@]3(C)[C@]2(C(=O)CO)O1` (single isomer, unassigned) [1 B] was tested, and the “Dose required to obtain 50% inhibition of Granuloma growth” value was 30 γ/animal, the “Dose required to obtain 25% inhibition of Body weight Increase” value (rat, in vivo) was 30 γ/animal and the “Dose required to obtain 50% inhibition of Thymus weight” value (rat, in vivo) was 50 γ/animal.

`CCCC1O[C@@H]2C[C@H]3[C@@H]4CCC5=CC(=O)C=C[C@]5(C)[C@H]4[C@@H](O)C[C@]3(C)[C@]2(C(=O)CO)O1` (single isomer, unassigned) [12 B] was tested, and the “Dose required to obtain 50% inhibition of Granuloma growth” value was 40 γ/animal, the “Dose required to obtain 25% inhibition of Body weight Increase” value (rat, in vivo) was 50 γ/animal and the “Dose required to obtain 50% inhibition of Thymus weight” value (rat, in vivo) was 70 γ/animal.

In the case of `CCCCC1O[C@@H]2C[C@H]3[C@@H]4CCC5=CC(=O)C=C[C@]5(C)[C@@]4(F)[C@@H](O)C[C@]3(C)[C@]2(C(=O)CO)O1` (single isomer, unassigned) [4 B], the “Dose required to obtain 50% inhibition of Granuloma growth” value is reported as < 3 γ/animal, the “Dose required to obtain 25% inhibition of Body weight Increase” value (rat, in vivo) is reported as 100 γ/animal and the “Dose required to obtain 50% inhibition of Thymus weight” value (rat, in vivo) is reported as 50 γ/animal.

For `CCCC1O[C@@H]2C[C@H]3[C@@H]4CCC5=CC(=O)C=C[C@]5(C)[C@@]4(F)[C@@H](O)C[C@]3(C)[C@]2(C(=O)CO)O1` (single isomer, unassigned) [3 B], the “Dose required to obtain 50% inhibition of Granuloma growth” value was 3 γ/animal, the “Dose required to obtain 25% inhibition of Body weight Increase” value (rat, in vivo) was 100 γ/animal and the “Dose required to obtain 50% inhibition of Thymus weight” value (rat, in vivo) was 17 γ/animal.

For `CCCC1OC2CC3C4CCC5=CC(=O)C=CC5(C)C4(F)C(O)CC3(C)C2(C(=O)CO)O1` (mixture of isomers) [3 A+B], the “Dose required to obtain 50% inhibition of Granuloma growth” value was 10 γ/animal, the “Dose required to obtain 25% inhibition of Body weight Increase” value (rat, in vivo) was > 30 γ/animal and the “Dose required to obtain 50% inhibition of Thymus weight” value (rat, in vivo) was > 30 γ/animal.

For `CC1O[C@@H]2C[C@H]3[C@@H]4CCC5=CC(=O)C=C[C@]5(C)[C@@]4(F)[C@@H](O)C[C@]3(C)[C@]2(C(=O)COC(=O)c2cccnc2)O1` (single isomer, unassigned) [17 B], the “Dose required to obtain 50% inhibition of Granuloma growth” value was 3 γ/animal, the “Dose required to obtain 25% inhibition of Body weight Increase” value (rat, in vivo) was 20 γ/animal and the “Dose required to obtain 50% inhibition of Thymus weight” value (rat, in vivo) was 13 γ/animal.

With `CCCC1OC2CC3C4CC(F)C5=CC(=O)C=CC5(C)C4(F)C(O)CC3(C)C2(C(=O)CO)O1` (mixture of isomers) [8 A+B] the “Dose required to obtain 50% inhibition of Granuloma growth” value was 5 γ/animal, the “Dose required to obtain 25% inhibition of Body weight Increase” value (rat, in vivo) was 50 γ/animal and the “Dose required to obtain 50% inhibition of Thymus weight” value (rat, in vivo) was 10 γ/animal.

In the case of `CCCCC1O[C@@H]2C[C@H]3[C@@H]4CCC5=CC(=O)C=C[C@]5(C)[C@@]4(F)[C@@H](O)C[C@]3(C)[C@]2(C(=O)CO)O1` (single isomer, unassigned) [4 A], the “Dose required to obtain 50% inhibition of Granuloma growth” value is reported as < 3 γ/animal, the “Dose required to obtain 25% inhibition of Body weight Increase” value (rat, in vivo) is reported as 170 γ/animal and the “Dose required to obtain 50% inhibition of Thymus weight” value (rat, in vivo) is reported as 100 γ/animal.
